Data published in patent US20230416262A1, “TRPML MODULATORS” (Casma Therapeutics, Inc., priority 2020, published 2023).

Tests used:
[1] = test system: TFEB; assay: TFEB nuclear translocation assay; type: cell-based; conditions: Homo sapiens; HeLa wt or HeLa TRPML1 KO cells, treated for 2 hrs; ratio of nuclear to ring-region TFEB intensity
Outline: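 HeLa wild-type or TRPML1 KO cells treated 2 h with compound at 37 °C, PFA-fixed, immunostained for TFEB (Alexa 488) with Hoechst nuclei. Imaged at ×20, four fields/well. Value is ratio of nuclear to perinuclear-ring TFEB intensity, with nuclei counts.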

[2] = test system: THP-1 cells; assay: Lamp1 lysosomal exocytosis assay; type: cell-based; conditions: Homo sapiens, 55 min, 55 min incubation, top dose 20 μM
Outline: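 THP-1 cells (1e5/well) exposed to a 7-point 3-fold compound series, top final 20 μM, for 55 min at 37°C. Surface Lamp1 then stained with Lamp1-PE on ice in buffer containing 80 μM Dynasore, and read by flow cytometry as PE geometric mean on live, sytox-negative singlets.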

CN(C)S(=O)(=O)c1ccc(S(=O)(=O)N2CC3(CCCCC3)c3ccccc32)cc1 [Compound I-99, 4-({1′,2′-dihydrospiro[cyclohexane-1,3′-indol]-1′-yl}sulfonyl)-N,N-dimethylbenzene-1-sulfonamide]
EC50 [1]: ≤ 2 µM
EC50 [2]: ≤ 0.5 µM

O=C(Nc1cccc(C(F)F)c1)N1CCC2(CC1)CN(S(=O)(=O)c1ccc(C(F)F)cc1)c1ccccc12 [Compound I-221, N-(3-(difluoromethyl)phenyl)-1-((4-(difluoromethyl)phenyl)sulfonyl)spiro[indoline-3,4′-piperidine]-1′-carboxamide]
EC50 [1]: 2.01 to 8 µM
EC50 [2]: ≥ 5.01 µM

O=C(C1CC1)N1CCC2(CC1)CN(S(=O)(=O)c1ccc(C(F)F)cc1)c1ccccc12 [Compound I-162, 1′-cyclopropanecarbonyl-1-[4-(difluoromethyl)benzenesulfonyl]-1,2-dihydrospiro[indole-3,4′-piperidine]]
EC50 [1]: ≥ 10 µM
EC50 [2]: ≥ 5.01 µM

CC1(C)Cc2cc(S(=O)(=O)N3CC4(CCN(C(=O)OCc5ccccc5)CC4)c4ccccc43)ccc2O1 [Compound I-189, benzyl 1-((2,2-dimethyl-2,3-dihydrobenzofuran-5-yl)sulfonyl)spiro[indoline-3,4′-piperidine]-1′-carboxylate]
EC50 [1]: ≤ 2 µM
EC50 [2]: ≤ 0.5 µM

CC1(C)COc2ccc(S(=O)(=O)N3CC4(CCCCC4)c4ccccc43)cc21 [Compound I-94, 1′-[(3,3-dimethyl-2,3-dihydro-1-benzofuran-5-yl)sulfonyl]-1′,2′-dihydrospiro[cyclohexane-1,3′-indole]]
EC50 [1]: ≤ 2 µM
EC50 [2]: ≥ 5.01 µM

O=C(Nc1ccc2c(c1)OCCO2)N1CCC2(CC1)CN(S(=O)(=O)c1ccc(C(F)F)cc1)c1ccccc12 [Compound I-225, 1-((4-(difluoromethyl)phenyl)sulfonyl)-N-(2,3-dihydrobenzo[b][1,4]dioxin-6-yl)spiro[indoline-3,4′-piperidine]-1′-carboxamide]
EC50 [1]: ≥ 10 µM
EC50 [2]: ≥ 5.01 µM

CC(C)C(=O)N1CC2(CCN(C(=O)OCc3ccccc3)CC2)c2ccccc21 [Compound I-190, benzyl 1-(2-methylpropanoyl)-1,2-dihydrospiro[indole-3,4′-piperidine]-1′-carboxylate]
EC50 [1]: ≥ 10 µM
EC50 [2]: ≥ 5.01 µM

O=C(Nc1ccc2c(c1)CCO2)N1CCC2(CC1)CN(S(=O)(=O)c1ccc(C(F)F)cc1)c1ccccc12 [Compound I-219, 1-((4-(difluoromethyl)phenyl)sulfonyl)-N-(2,3-dihydrobenzofuran-5-yl)spiro[indoline-3,4′-piperidine]-1′-carboxamide]
EC50 [1]: ≥ 10 µM
EC50 [2]: ≥ 5.01 µM

CN(Cc1ccccc1)C(=O)N1CCC2(CC1)CN(S(=O)(=O)c1ccc(C(F)F)cc1)c1ccccc12 [Compound I-178, N-benzyl-1-((4-(difluoromethyl)phenyl)sulfonyl)-N-methylspiro[indoline-3,4′-piperidine]-1′-carboxamide]
EC50 [1]: 2.01 to 8 µM
EC50 [2]: 0.51 to 1 µM

CC(C)OC(=O)N1CCC2(CC1)CN(S(=O)(=O)c1ccc(C(F)F)cc1)c1ccccc12 [Compound I-160, propan-2-yl 1-[4-(difluoromethyl)benzenesulfonyl]-1,2-dihydrospiro[indole-3,4′-piperidine]-1′-carboxylate]
EC50 [1]: ≤ 2 µM
EC50 [2]: ≤ 0.5 µM

Cc1ccc2c(c1)N(S(=O)(=O)c1ccc(S(=N)(=O)N(C)C)cc1)CC21CCCCC1 (centres unmarked) [Compound I-149, N,N-dimethyl-4-({6′-methyl-1′,2′-dihydrospiro[cyclohexane-1,3′-indol]-1′-yl}sulfonyl)benzene-1-sulfonoimidamide]
EC50 [1]: ≤ 2 µM
EC50 [2]: ≤ 0.5 µM

O=C(OCc1ccccc1)N1CCC2(C1)CN(S(=O)(=O)c1ccc(C(F)F)cc1)c1ccccc12 (centres unmarked) [Compound I-91, benzyl 1-[4-(difluoromethyl)benzenesulfonyl]-1,2-dihydrospiro[indole-3,3′-pyrrolidine]-1′-carboxylate]
EC50 [1]: 2.01 to 8 µM
EC50 [2]: ≥ 5.01 µM

CN1CCC2(CC1)CN(S(=O)(=O)c1ccc(C(F)F)cc1)c1ccccc12 [Compound I-83]
EC50 [1]: ≥ 10 µM
EC50 [2]: ≥ 5.01 µM

O=C(OCc1ccccc1)N1CCC2(CC1)CN(C(=O)Cc1ccc(C(F)F)cc1)c1ccccc12 [Compound I-246, benzyl 1-(2-(4-(difluoromethyl)phenyl)acetyl)spiro[indoline-3,4′-piperidine]-1′-carboxylate]
EC50 [1]: ≥ 10 µM
EC50 [2]: ≥ 5.01 µM

O=C(OCc1ccccc1)N1CCC2(CC1)CN(S(=O)(=O)Cc1ccc(C(F)F)cc1)c1ccccc12 [Compound I-250, benzyl 1-((4-(difluoromethyl)benzyl)sulfonyl)spiro[indoline-3,4′-piperidine]-1′-carboxylate]
EC50 [1]: ≤ 2 µM
EC50 [2]: ≤ 0.5 µM

O=C(OCC1CC1)N1CCC2(CC1)CN(S(=O)(=O)c1ccc(C(F)F)cc1)c1ccccc12 [Compound I-170, cyclopropylmethyl 1-((4-(difluoromethyl)phenyl)sulfonyl)spiro[indoline-3,4′-piperidine]-1′-carboxylate]
EC50 [1]: ≤ 2 µM
EC50 [2]: 0.51 to 1 µM

O=C(OCc1ccccc1)N1CCC2(CC1)CN(C(=O)Oc1ccc(C(F)F)cc1)c1ccccc12 [Compound I-249, 1′-benzyl 1-(4-(difluoromethyl)phenyl) spiro[indoline-3,4′-piperidine]-1,1′-dicarboxylate]
EC50 [1]: ≥ 10 µM
EC50 [2]: ≥ 5.01 µM

O=C(OCc1ccccc1)N1CCC2(CC1)CN(S(=O)(=O)Cc1ccccc1)c1ccccc12 [Compound I-80, benzyl 1-(benzylsulfonyl)spiro[indoline-3,4′-piperidine]-1′-carboxylate]
EC50 [1]: ≤ 2 µM
EC50 [2]: ≥ 5.01 µM

Cc1ccc2c(c1)N(S(=O)(=O)c1ccc(S(=O)(=O)N(C)C)cc1)CC21CCCC1 [Compound I-79, N,N-dimethyl-4-((6′-methylspiro[cyclopentane-1,3′-indolin]-1′-yl)sulfonyl)benzenesulfonamide]
EC50 [1]: ≤ 2 µM
EC50 [2]: ≤ 0.5 µM

O=S(=O)(c1ccc(C(F)F)cc1)N1CC2(CCN(Cc3cccnc3)CC2)c2ccccc21 [Compound I-165, 1-[4-(difluoromethyl)benzenesulfonyl]-1′-[(pyridin-3-yl)methyl]-1,2-dihydrospiro[indole-3,4′-piperidine]]
EC50 [1]: 2.01 to 8 µM
EC50 [2]: ≥ 5.01 µM

O=C(Oc1ccccc1)N1CCC2(CC1)CN(S(=O)(=O)c1ccc(C(F)F)cc1)c1ccccc12 [Compound I-169, phenyl 1-((4-(difluoromethyl)phenyl)sulfonyl)spiro[indoline-3,4′-piperidine]-1′-carboxylate]
EC50 [1]: ≤ 2 µM
EC50 [2]: ≥ 5.01 µM

O=S(=O)(c1ccc(C(F)F)cc1)N1CC2(CCN(Cc3ncccn3)CC2)c2ccccc21 [Compound I-167, 1-[4-(difluoromethyl)benzenesulfonyl]-1′-[(pyrimidin-2-yl)methyl]-1,2-dihydrospiro[indole-3,4′-piperidine]]
EC50 [1]: 8.01 to 9.99 µM
EC50 [2]: ≥ 5.01 µM

CC(F)(F)CN1CCC2(CC1)CN(S(=O)(=O)c1ccc(C(F)F)cc1)c1ccccc12 [Compound I-122, 1-((4-(difluoromethyl)phenyl)sulfonyl)-1′-(2,2-difluoropropyl)spiro[indoline-3,4′-piperidine]]
EC50 [1]: ≤ 2 µM
EC50 [2]: ≥ 5.01 µM

O=C(OCc1ccccc1)N1CCC2(CC1)CN(S(=O)(=O)c1ccc(C3CC3)cc1)c1ccccc12 [Compound I-188, benzyl 1-((4-cyclopropylphenyl)sulfonyl)spiro[indoline-3,4′-piperidine]-1′-carboxylate]
EC50 [1]: ≤ 2 µM
EC50 [2]: ≥ 5.01 µM

CN(C)S(=O)(=O)c1ccc(S(=O)(=O)N2CC3(CN(C(=O)OCc4ccccc4)C3)c3ccccc32)cc1 [Compound I-105, benzyl 1′-[4-(dimethylsulfamoyl)benzenesulfonyl]-1′,2′-dihydrospiro[azetidine-3,3′-indole]-1-carboxylate]
EC50 [1]: ≤ 2 µM
EC50 [2]: ≥ 5.01 µM

O=S(=O)(c1ccc(C(F)F)cc1)N1CC2(CCN(Cc3ccncc3)CC2)c2ccccc21 [Compound I-166, 1-[4-(difluoromethyl)benzenesulfonyl]-1′-[(pyridin-4-yl)methyl]-1,2-dihydrospiro[indole-3,4′-piperidine]]
EC50 [1]: ≤ 2 µM
EC50 [2]: ≥ 5.01 µM

CN(C)S(=O)(=O)c1ccc(S(=O)(=O)N2CC3(CCN(CC4CCOCC4)CC3)c3ccccc32)cc1 [Compound I-98, N,N-dimethyl-4-({1′-[(oxan-4-yl)methyl]-1,2-dihydrospiro[indole-3,4′-piperidin]-1-yl}sulfonyl)benzene-1-sulfonamide]
EC50 [1]: ≤ 2 µM
EC50 [2]: 1.01 to 5 µM

O=C(OCc1ccccc1)N1CCC2(CC1)CN(C(=O)Nc1ccc(C(F)F)cc1)c1ccccc12 [Compound I-247, benzyl 1-((4-(difluoromethyl)phenyl)carbamoyl)spiro[indoline-3,4′-piperidine]-1′-carboxylate]
EC50 [1]: ≥ 10 µM
EC50 [2]: ≥ 5.01 µM

O=C(NC1CCOc2ccccc21)N1CCC2(CC1)CN(S(=O)(=O)c1ccc(C(F)F)cc1)c1ccccc12 (centres unmarked) [Compound I-223, N-(chroman-4-yl)-1-((4-(difluoromethyl)phenyl)sulfonyl)spiro[indoline-3,4′-piperidine]-1′-carboxamide]
EC50 [1]: ≤ 2 µM
EC50 [2]: 0.51 to 1 µM

O=S(=O)(c1ccc(C(F)F)cc1)N1CC2(CCN(Cc3ccccn3)CC2)c2ccccc21 [Compound I-164]
EC50 [1]: ≤ 2 µM
EC50 [2]: ≥ 5.01 µM

COc1ccc(NC(=O)N2CCC3(CC2)CN(S(=O)(=O)c2ccc(C(F)F)cc2)c2ccccc23)cc1OC [Compound I-226, 1-((4-(difluoromethyl)phenyl)sulfonyl)-N-(3,4-dimethoxyphenyl)spiro[indoline-3,4′-piperidine]-1′-carboxamide]
EC50 [1]: ≥ 10 µM
EC50 [2]: ≥ 5.01 µM
